We go through two compounds from publication PMC7150991 (Viruses, 2020).

For data set [1], the system named is influenza A virus. The data set is described as follows: microbe, parasite or virus in culture. In kind it is cell-based. The following applies: A549, 48 h.
Data set [2] deals with influenza A virus. As to the kind of experiment: microbe, parasite or virus in culture. It counts as cell-based. Conditions: MDCK, 48 h.
The test system of data set [3] is influenza A virus. The data set is described as follows: microbe, parasite or virus in culture. It counts as cell-based. The following applies: 48 h.
The test system of data set [4] is influenza A virus. As to the kind of experiment: microbe, parasite or virus in culture. It counts as cell-based. Conditions: 72 h.
The next data set deals with A549 cells. The data set is described as follows: XTT cell viability assay, A549 cells. In kind it is cell-based, human. The following applies: 48 h. A general note: Tetrazolium dyes change colour on reduction, which living cells bring about.
A further data set deals with MDCK cells. As to the kind of experiment: XTT cell viability assay, MDCK cells. It counts as cell-based, canine. Conditions: 48 h.
The subject of the next data set is LET1 cells. The data set is described as follows: XTT cell viability assay, LET1 cells. It counts as cell-based, mouse. The following applies: 48 h.
For a further data set, the system named is HAE cultures. As to the kind of experiment: Cytotoxicity in HAE cultures. In kind it is cell-based, human. The following applies: up to 160 µM (0.054 µg/mL).
The next data set has as its system ERK1. The data set is described as follows: cells. It counts as cell-based, human.
The next data set concerns influenza A virus NP. It counts as cell-based, human.
The test system of data set [5] is influenza virus. Conditions: MDCK cells, ref Wu et al. [20], cited from earlier work.
For data set [6], the system named is influenza virus. The following applies: cited from earlier work.
In a further data set the test system is H1N1 virus. Conditions: MDCK cells; ref Cecil et al. [19]; cited from earlier work.

“And” between values parts separate entries of the source, which are not always exact repeats. Equal values may be shown once. Read-outs that look alike come from different tables or passages of the source.

As a reminder, the IC50 is the point on the concentration scale where inhibition reaches its midpoint. A word on the inhibition: it is the relative decrease from the control value, in per cent. In the case of `COc1ccc2cc3[n+](cc2c1OC)CCc1cc2c(cc1-3)OCO2` [BBR, Berberine chloride hydrate], the concentration for half-maximal inhibition (IC50) was 17 µM and 6 µg/mL in the data set on influenza A virus [1]; 52 µM and 17 µg/mL in the data set on influenza A virus [2]; 4 µM and 1 µg/mL with influenza A virus [3]; 16 µM and 5 µg/mL in the data set with influenza A virus [4]; approximately 67 µM with influenza virus [5] (conversion of 0.025 µg/mL, read-out: IC50); 0.025 µg/mL in the data set on influenza virus [5]. In addition, the TC50 was determined as 107 µM with A549 cells; 0.036 µg/mL in the data set with A549 cells (value in brackets); 1035 µM with MDCK cells; 0.350 µg/mL in the data set on MDCK cells (value in brackets); 521 µM in the data set with LET1 cells; 0.176 µg/mL in the data set on LET1 cells (value in brackets). The “cytotoxicity at tested concentrations” value with HAE cultures is recorded as “did not observe cytotoxicity”. Moreover, the inhibition at 20 µM in the data set on ERK1 (Homo sapiens, A549, 12 h, read-out: inhibition of ERK1 activation (phospho-ERK1, Western blot)) worked out at 45%. Moreover, the “accumulation of influenza A virus NP in nuclear fractions” value in the data set with influenza A virus NP is given as “did not cause significant accumulation”. Further, in the data set with influenza A virus NP, the “decrease of NP signal in cytoplasmatic fraction” value is recorded as “about 40 % inhibition”. In addition, the “increase of viral NP in nuclear fractions compared to untreated infection” value with influenza A virus NP is listed as ~ 3 fold. The mice mortality in the data set with influenza virus [6] (mice models, reduced from 90%) is given as 55%. In the data set with influenza virus [6] (mice, day 2 post-infection), the “virus titers in the lungs” value is “decreased”. Moreover, in the data set with H1N1 virus, the “inhibition of virus replication” value is recorded as “No inhibition”.
Turning to `N#CC(=C(/N)Sc1ccccc1N)/C(C#N)=C(/N)Sc1ccccc1N` [U0126, reference compound], the “inhibition of ERK1 activation (phospho-ERK1, Western blot)” value in the data set with ERK1 was found to be 76 % inhibition. In the data set with influenza A virus NP, the “decrease of NP signal in cytoplasmatic fraction” value is “about 40 % inhibition” and the “increase of viral NP in nuclear fractions compared to untreated infection” value was ~ 3 fold.
